Key:
Format in all cases: in vivo, Drosophila melanogaster
human APP mRNA = test: Real-time qRT-PCR, human APP mRNA in elav < APP/BACE-1 flies; conditions: 100, 300, and 500 μM; 20-day-old males; compared to vehicle
Experimental: Real-time qRT-PCR with SYBR Green dye was performed to determine whether acacetin affected the expression levels of the human APP and BACE-1 mRNAs in the transgenic flies. The elav < APP/BACE-1 and elav < GFP flies were cultured from the egg stage in vials, as stated previously. The controls received 0.1% DMSO only. The total RNA was extracted from 30 heads (30 mg) of male elav < APP/BACE-1 and elav < GFP flies (20 days old) using the RNeasy Mini Kit (Qiagen, Hilden, Germany) according to the manufacturer’s instructions. The residual genomic DNA was removed using RQ1 RNase-Free DNase (Promega, Fitchburg, WI, USA), and 1 μg of the total RNA from each sample was used for complementary DNA (cDNA) synthesis with an oligo (dT) 12–18 primer (Invitrogen, Carlsbad, CA, USA) according to the protocol of the SuperScript III Reverse Transcriptase Kit. Real-time qRT-PCR was performed in 96-well plates using the StepOne Plus Real-Time PCR System (Applied Biosystems, Darmstadt, Germany). […] The mRNA expression levels of the target genes were normalized to the mRNA expression level of the housekeeping gene rp 49 that encodes the Drosophila ribosomal protein 49, and analyzed by the 2^–ΔΔCT method using the StepOne Software v2.3 and DataAssist Software (Applied Biosystems). The results are expressed as the means ± SEs of duplicate samples from three independent experiments.

GMR < APP/BACE-1 flies = test: Congo red staining of amyloid plaques in compound eyes; conditions: 5- and 15-day-old flies
Experimental: Congo red staining was performed to detect the amyloid plaques in the Drosophila AD model. The paraffin-embedded sections described above were deparaffinized and then stained using NovaUltra Special Stain Kits (IHC World, Woodstock, MD, USA) according to the manufacturer’s instructions. Finally, the sections were dehydrated and mounted with mounting medium. The images were observed and captured using an EZ4 HD stereo microscope.

elav < APP/BACE-1 flies = test: Lifespan assay; conditions: males
Experimental: Groups of 20 newly emerged male elav < APP/BACE-1 flies, cultured in vials as stated previously, were separately transferred to vials containing media supplemented with acacetin (100, 300, and 500 μM) every 4 days. The controls received 0.1% DMSO. The median life time (T1/2) was defined as the time when the survivor function equaled 50%, because median survivorship is a more reliable index than mean survival time, as described by Chakraborty and colleagues. All treatments were repeated 10 times using 20 males per replicate.

human BACE-1 = test: Western blot, BACE-1 protein in heads of elav < APP/BACE-1 flies; conditions: 20-day-old males
Experimental: The elav < APP/BACE-1 flies were cultured from the egg stage, as described previously. The lysates were obtained from the heads of 50 male flies (20 days old) by placing the heads in 100 μL RIPA buffer (pH 8.0) containing a 1% protease inhibitor cocktail. The controls received 0.1% DMSO. The lysates were centrifuged at 14,000 rpm for 30 min at 4 °C. The protein content of the supernatant was determined using a Bradford Protein Assay kit (Sigma-Aldrich) and BSA was used as the standard. The total proteins (30 μg/sample for APP and BACE-1 detection; 70 μg/sample for Aβ detection) were mixed with an equal volume of 5× sample buffer[81] containing 40 mM of DL-dithiothreitol, boiled for 10 min, and then loaded onto 8, 10, and 12% sodium dodecyl sulfate-polyacrylamide gels using a Mini-Protean 3 electrophoresis cell (Bio-Rad, Hercules, CA, USA) for APP, APP-CTF (APP-αCTF and APP-βCTF) and AICD, BACE-1, and Aβ detection, respectively. After electrophoresis at 110 V in 2 h, the proteins from the gels were transferred onto a polyvinyl difluoride membrane (Pall Corporation, Pensacola, FL, USA) using an electroblotting apparatus. The membrane was then blocked with 5% skim milk (BD Difco, Flanklin Lakes, NJ, USA) in PBS containing 0.1% (v/v) Tween-20 (0.1% PBS-T) at room temperature for 1 h, and further incubated overnight at 4 °C with a 1:4,000 dilution of an anti-APP C-terminal antibody to detect the cleaved APP product, a 1:1,000 dilution of anti-BACE-1, and a 1:1,000 dilution of anti-amyloid (4G8). After washing with 0.1% PBS-T three times at 10 min intervals, the membranes were further incubated for 2 h with a goat anti-rabbit IgG H&L (HRP) secondary antibody at a1:4,000 dilution for APP and BACE-1 and a goat anti-mouse lgG-HRP at a 1:5,000 dilution for β-amyloid. […] The differences in protein expression were quantified using a Molecular Imager Gel Doc XR system (Bio-Rad, Hercules, CA, USA) and normalized to actin expression on the same membrane. The results are expressed as the means ± SEs of duplicate samples from three independent experiments.

`COc1ccc(-c2cc(=O)c3c(O)cc(O)cc3o2)cc1` [acacetin] was tested, and the “reduction in the APP mRNA levels” value (human APP mRNA) was 69–82%, the amyloid plaque deposits (GMR < APP/BACE-1 flies; 500 μM) was “a few amyloid plaque deposits were also detected” and the “number of amyloid deposits” value (GMR < APP/BACE-1 flies; 100 and 300 μM) was “significantly suppressed the number of amyloid deposits”. The “median life time (T1/2)” value (elav < APP/BACE-1 flies; 100 μM, vehicle 26 days, elav-Gal4/+ 36 days) was 31 days, the lifespan (elav < APP/BACE-1 flies; 100, 300, and 500 μM, vs vehicle-fed transgenic flies) was “did not significantly increase the lifespan” and the “median life time (T1/2)” value (elav < APP/BACE-1 flies; 300 and 500 μM) was “did not significantly extend the T1/2”. For the same molecule, the “BACE-1 protein levels, % of the control levels” value (from here on “BACE-1 protein levels, %”) (human BACE-1; 100 μM) was 81%, the “BACE-1 protein levels, %” value (human BACE-1; 300 μM) was 75% and the “BACE-1 protein levels, %” value (human BACE-1; 500 μM) was 74%.
